Measurements published in paper PMC5663982, “Imaging the Antistaphylococcal Activity of CATH-2: Mechanism of Attack and Regulation of Inflammatory Response” (mSphere, 2017).

Target: T1, CATH-2 (chicken cathelicidin-2) (Gallus gallus, UniProt Q2IAL7)
T1 construct: gene CATHL2; Fmoc synthesis, unlabelled; cut from the cathelicidin-2 precursor
T1 sequence (Q2IAL7 128-153): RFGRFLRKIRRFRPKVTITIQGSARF
Assay: isothermal titration calorimetry
Format: binding
Conditions: PBS, 1.5% ethanol, 20 °C; 400 µM CATH-2 titrated into 200 µM cardiolipin (Sigma-Aldrich, source and acyl chains not told); n = 2, SEM; lipid suspension
From the text: isothermal titration calorimetry on CATH-2 (chicken cathelicidin-2)

Kd: 72.1 ± 57.1 nM
Substance: cardiolipin
